Test results reported in ChEMBL document CHEMBL1201862, “PubChem BioAssay data set” (2004).
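Each compound was tested at five concentrations against cells in 96-well plates for 48 hours. The concentration for 50% growth inhibition is given as GI50.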 The source made the active and inactive calls. No stated cut-off is given here; in the data, active = GI50 up to about 1.1 µM and inactive = higher.

Columns and labels:
Test in all cases: NCI anticancer screen, dose series, 48 h
[1] = system: Malme-3M
[2] = system: OVCAR-5
[3] = system: BT-549
[4] = system: MDA-MB-231
[5] = system: Hs-578T
[6] = system: HL-60
[7] = system: A549
[8] = system: CCRF-CEM
[9] = system: NCI-H23
[10] = system: OVCAR-4
[11] = system: U-251
[12] = system: K562
[13] = system: SNB-75
[14] = system: UACC-62
[15] = system: M14
[16] = system: T47D
[17] = system: A498
[18] = system: RPMI-8226
[19] = system: RXF 393
[20] = system: NCI/ADR-RES
[21] = system: MOLT-4
[22] = system: MDA-MB-435
[23] = system: SK-MEL-5
[24] = system: MCF7
[25] = system: SK-MEL-2
[26] = system: IGROV-1
[27] = system: HOP-62
[28] = system: HCT-116
[29] = system: TK-10
[30] = system: HCC 2998
[31] = system: SN12C
[32] = system: SF-268
[33] = system: SNB-19
[34] = system: SF-295
[35] = system: HOP-92
[36] = system: UACC-257
[37] = system: SW-620
[38] = system: UO-31
[39] = system: ACHN
[40] = system: SK-MEL-28
[41] = system: HCT-15
[42] = system: OVCAR-8
[43] = system: SK-OV-3
[44] = system: NCI-H522
[45] = system: COLO 205
[46] = system: KM12
[47] = system: OVCAR-3
[48] = system: PC-3
[49] = system: SR
[50] = system: MDA-N
[51] = system: NCI-H460
[52] = system: 786-0
[53] = system: CAKI-1
[54] = system: NCI-H226
[55] = system: SF-539
[56] = system: LOX IMVI
[57] = system: DU-145
[58] = system: HT-29
[59] = system: EKVX

## CC(=O)c1c(C(F)(F)F)[n+]([O-])c2cc(Cl)c(Cl)cc2[n+]1[O-]
[1]
  GI50: 0.685 µM (active)
[2]
  GI50: 1.63 µM (inactive)
[3]
  GI50: 0.211 µM (active)
[4]
  GI50: 1.3 µM (inactive)
[5]
  GI50: 0.483 µM (active)
[6]
  GI50: 0.338 µM (active)
[7]
  GI50: 0.575 µM (active)
[8]
  GI50: 0.146 µM (active)
[9]
  GI50: 0.938 µM (active)
[10]
  GI50: 1.4 µM (inactive)
[11]
  GI50: 1.24 µM (inactive)
[12]
  GI50: 0.977 µM (active)
[13]
  GI50: 1.07 µM (active)
[14]
  GI50: 1.26 µM (inactive)
[15]
  GI50: 1.21 µM (inactive)
[16]
  GI50: 0.338 µM (active)
[17]
  GI50: 1.15 µM (inactive)
[18]
  GI50: 0.129 µM (active)
[19]
  GI50: 0.895 µM (active)
[20]
  GI50: 1.5 µM (inactive)
[21]
  GI50: 0.0798 µM (active)
[22]
  GI50: 1.3 µM (inactive)
[23]
  GI50: 0.796 µM (active)
[24]
  GI50: 0.265 µM (active)
[25]
  GI50: 1.19 µM (inactive)
[26]
  GI50: 0.111 µM (active)
[27]
  GI50: 0.27 µM (active)
[28]
  GI50: 0.249 µM (active)
[29]
  GI50: 0.212 µM (active)
[30]
  GI50: 0.184 µM (active)
[31]
  GI50: 1.12 µM (inactive)
[32]
  GI50: 1.15 µM (inactive)
[33]
  GI50: 0.83 µM (active)
[34]
  GI50: 0.719 µM (active)
[35]
  GI50: 0.195 µM (active)
[36]
  GI50: 0.762 µM (active)
[37]
  GI50: 0.393 µM (active)
[38]
  GI50: 0.41 µM (active)
[39]
  GI50: 0.548 µM (active)
[40]
  GI50: 1.88 µM (inactive)
[41]
  GI50: 0.196 µM
[42]
  GI50: 0.531 µM (active)
[43]
  GI50: 1.46 µM (inactive)
[44]
  GI50: 0.165 µM (active)
[45]
  GI50: 0.746 µM (active)
[46]
  GI50: 0.109 µM (active)
[47]
  GI50: 1.36 µM (inactive)
[48]
  GI50: 1.31 µM (inactive)
[49]
  GI50: 0.0196 µM (active)
[50]
  GI50: 1.12 µM (inactive)
[51]
  GI50: 0.242 µM (active)
[52]
  GI50: 0.168 µM (active)
[53]
  GI50: 1.44 µM (inactive)
[54]
  GI50: 1.46 µM (inactive)
[55]
  GI50: 1.15 µM (inactive)
[56]
  GI50: 0.157 µM (active)
[57]
  GI50: 1.26 µM (inactive)
[58]
  GI50: 0.792 µM (active)
[59]
  GI50: 1.29 µM (inactive)

## CCOP(=O)(CCCC(O)CNc1cc(Cl)nc(N)n1)OCC (centres undefined)
[1]
  GI50: > 100 µM (inactive)
[2]
  GI50: > 100 µM (inactive)
[3]
  GI50: > 100 µM (inactive)
[4]
  GI50: > 100 µM (inactive)
[5]
  GI50: > 100 µM (inactive)
[6]
  GI50: > 100 µM (inactive)
[7]
  GI50: > 100 µM (inactive)
[8]
  GI50: > 100 µM (inactive)
[9]
  GI50: > 100 µM (inactive)
[10]
  GI50: > 100 µM (inactive)
[11]
  GI50: > 100 µM (inactive)
[12]
  GI50: > 100 µM (inactive)
[13]
  GI50: > 100 µM (inactive)
[14]
  GI50: > 100 µM (inactive)
[16]
  GI50: > 100 µM (inactive)
[17]
  GI50: > 100 µM (inactive)
[18]
  GI50: > 100 µM (inactive)
[19]
  GI50: > 100 µM (inactive)
[20]
  GI50: > 100 µM (inactive)
[21]
  GI50: > 100 µM (inactive)
[22]
  GI50: > 100 µM (inactive)
[23]
  GI50: > 100 µM (inactive)
[24]
  GI50: > 100 µM (inactive)
[25]
  GI50: > 100 µM (inactive)
[26]
  GI50: > 100 µM (inactive)
[27]
  GI50: > 100 µM (inactive)
[28]
  GI50: > 100 µM (inactive)
[29]
  GI50: > 100 µM (inactive)
[30]
  GI50: > 100 µM (inactive)
[31]
  GI50: > 100 µM (inactive)
[32]
  GI50: > 100 µM (inactive)
[34]
  GI50: > 100 µM (inactive)
[35]
  GI50: > 100 µM (inactive)
[36]
  GI50: > 100 µM (inactive)
[37]
  GI50: > 100 µM (inactive)
[38]
  GI50: > 100 µM (inactive)
[39]
  GI50: > 100 µM (inactive)
[40]
  GI50: > 100 µM (inactive)
[41]
  GI50: > 100 µM
[42]
  GI50: > 100 µM (inactive)
[43]
  GI50: > 100 µM (inactive)
[44]
  GI50: > 100 µM (inactive)
[45]
  GI50: > 100 µM (inactive)
[46]
  GI50: > 100 µM (inactive)
[47]
  GI50: > 100 µM (inactive)
[48]
  GI50: > 100 µM (inactive)
[49]
  GI50: > 100 µM (inactive)
[50]
  GI50: > 100 µM (inactive)
[51]
  GI50: > 100 µM (inactive)
[52]
  GI50: > 100 µM (inactive)
[53]
  GI50: > 100 µM (inactive)
[54]
  GI50: > 100 µM (inactive)
[55]
  GI50: > 100 µM (inactive)
[56]
  GI50: > 100 µM (inactive)
[57]
  GI50: > 100 µM (inactive)
[58]
  GI50: > 100 µM (inactive)
[59]
  GI50: > 100 µM (inactive)

## O=[N+]([O-])c1cccc2nccc(NCC(O)CO)c12 (centres undefined)
[1]
  GI50: 14.4 µM (inactive)
[2]
  GI50: 21 µM (inactive)
[3]
  GI50: 14.2 µM (inactive)
[4]
  GI50: 11.5 µM (inactive)
[5]
  GI50: 7.8 µM (inactive)
[6]
  GI50: 1.36 µM (inactive)
[7]
  GI50: 15.1 µM (inactive)
[8]
  GI50: 13.3 µM (inactive)
[9]
  GI50: 16 µM (inactive)
[10]
  GI50: 18.5 µM (inactive)
[11]
  GI50: 14.6 µM (inactive)
[12]
  GI50: 20.2 µM (inactive)
[13]
  GI50: 22.8 µM (inactive)
[14]
  GI50: 15 µM (inactive)
[15]
  GI50: 17.4 µM (inactive)
[16]
  GI50: 24.2 µM (inactive)
[17]
  GI50: 7.66 µM (inactive)
[18]
  GI50: 12.7 µM (inactive)
[19]
  GI50: 11.6 µM (inactive)
[20]
  GI50: 25.5 µM (inactive)
[21]
  GI50: 9.55 µM (inactive)
[22]
  GI50: 16.6 µM (inactive)
[23]
  GI50: 13.1 µM (inactive)
[24]
  GI50: 13.9 µM (inactive)
[25]
  GI50: 11.4 µM (inactive)
[26]
  GI50: 16.1 µM (inactive)
[27]
  GI50: 17.6 µM (inactive)
[28]
  GI50: 13.4 µM (inactive)
[29]
  GI50: 18 µM (inactive)
[30]
  GI50: 13.1 µM (inactive)
[31]
  GI50: 16 µM (inactive)
[32]
  GI50: 19.8 µM (inactive)
[34]
  GI50: 21 µM (inactive)
[35]
  GI50: 20.6 µM (inactive)
[36]
  GI50: 15.2 µM (inactive)
[37]
  GI50: 14.5 µM (inactive)
[38]
  GI50: 18.2 µM (inactive)
[39]
  GI50: 20.6 µM (inactive)
[40]
  GI50: 15.7 µM (inactive)
[41]
  GI50: 8.85 µM
[42]
  GI50: 11.6 µM (inactive)
[43]
  GI50: 25.4 µM (inactive)
[44]
  GI50: 7.01 µM (inactive)
[45]
  GI50: 15 µM (inactive)
[46]
  GI50: 14 µM (inactive)
[47]
  GI50: 15.5 µM (inactive)
[48]
  GI50: 16.5 µM (inactive)
[49]
  GI50: 5.06 µM (inactive)
[50]
  GI50: 17.1 µM (inactive)
[51]
  GI50: 8.18 µM (inactive)
[52]
  GI50: 18 µM (inactive)
[53]
  GI50: 16 µM (inactive)
[54]
  GI50: 12.2 µM (inactive)
[55]
  GI50: 17.7 µM (inactive)
[56]
  GI50: 21.7 µM (inactive)
[57]
  GI50: 26.3 µM (inactive)
[58]
  GI50: 14.7 µM (inactive)
[59]
  GI50: 14.5 µM (inactive)
